The source made the active and inactive calls. The rule behind the calls is not given here.
Experiments:
[1] = test system: Bacillus subtilis; experiment: Antibacterial activity against Bacillus subtilis DSM 347 after 14 to 16 hrs by resazurin reduction assay; type: functional, organism-based
[2] = test system: Cutibacterium acnes; experiment: Antibacterial activity against Propionibacterium acnes DSM 1897 after 48 hrs by resazurin reduction assay; type: functional, organism-based
[3] = test system: Mammaliicoccus lentus; experiment: Antibacterial activity against Staphylococcus lentus DSM 6672 after 14 to 16 hrs by resazurin reduction assay; type: functional, organism-based
[4] = test system: Xanthomonas campestris; experiment: Antibacterial activity against Xanthomonas campestris DSM 2405 after 14 to 16 hrs by resazurin reduction assay; type: functional, organism-based
[5] = test system: Nakaseomyces glabratus; experiment: Antifungal activity against Candida glabrata DSM 6425 after 14 to 16 hrs by resazurin reduction assay; type: functional, organism-based
[6] = test system: Candida albicans; experiment: Antifungal activity against Candida albicans DSM 1386 after 14 to 16 hrs by resazurin reduction assay; type: functional, organism-based
[7] = test system: NIH3T3; experiment: Cytotoxicity against mouse NIH/3T3 cells after 24 hrs by CellTiter-Blue assay; type: functional, cell-based; conditions: NIH3T3, 24 h
[8] = test system: HepG2; experiment: Cytotoxicity against human HepG2 cells after 24 hrs by CellTiter-Blue assay; type: functional, cell-based; conditions: HepG2, 24 h
[9] = test system: HT-29; experiment: Cytotoxicity against human HT-29 cells after 24 hrs by CellTiter-Blue assay; type: functional, cell-based; conditions: HT-29, 24 h
[10] = target: 3',5'-cyclic-AMP phosphodiesterase 4B (Homo sapiens, UniProt Q07343); experiment: Inhibition of human recombinant PDE4B2 by HTS cAMP assay
Sequence of 3',5'-cyclic-AMP phosphodiesterase 4B (Q07343 whole entry): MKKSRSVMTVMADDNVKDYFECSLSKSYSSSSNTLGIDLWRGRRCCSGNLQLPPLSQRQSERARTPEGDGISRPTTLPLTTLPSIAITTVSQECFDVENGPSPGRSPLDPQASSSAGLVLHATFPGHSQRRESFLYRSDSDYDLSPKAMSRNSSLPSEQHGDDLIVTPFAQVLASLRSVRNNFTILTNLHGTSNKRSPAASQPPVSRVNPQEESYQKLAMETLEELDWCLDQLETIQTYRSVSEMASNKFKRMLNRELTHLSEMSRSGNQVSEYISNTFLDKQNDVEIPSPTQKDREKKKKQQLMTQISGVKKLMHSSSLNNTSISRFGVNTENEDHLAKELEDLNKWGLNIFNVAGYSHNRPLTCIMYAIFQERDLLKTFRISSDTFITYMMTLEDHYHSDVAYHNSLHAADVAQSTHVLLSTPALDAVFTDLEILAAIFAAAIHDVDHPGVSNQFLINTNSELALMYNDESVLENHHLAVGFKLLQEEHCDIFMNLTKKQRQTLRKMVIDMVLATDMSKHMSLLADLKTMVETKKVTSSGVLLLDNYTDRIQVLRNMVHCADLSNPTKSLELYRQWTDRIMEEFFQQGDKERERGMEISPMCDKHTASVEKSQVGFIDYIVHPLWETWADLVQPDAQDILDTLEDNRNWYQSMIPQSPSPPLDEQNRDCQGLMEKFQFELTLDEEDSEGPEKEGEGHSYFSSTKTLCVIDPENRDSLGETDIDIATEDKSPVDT

[11] = target: Glycogen synthase kinase-3 beta (Homo sapiens, UniProt P49841); experiment: Inhibition of recombinant GSK3beta by KinaseGlo assay
Sequence of Glycogen synthase kinase-3 beta (P49841 whole entry): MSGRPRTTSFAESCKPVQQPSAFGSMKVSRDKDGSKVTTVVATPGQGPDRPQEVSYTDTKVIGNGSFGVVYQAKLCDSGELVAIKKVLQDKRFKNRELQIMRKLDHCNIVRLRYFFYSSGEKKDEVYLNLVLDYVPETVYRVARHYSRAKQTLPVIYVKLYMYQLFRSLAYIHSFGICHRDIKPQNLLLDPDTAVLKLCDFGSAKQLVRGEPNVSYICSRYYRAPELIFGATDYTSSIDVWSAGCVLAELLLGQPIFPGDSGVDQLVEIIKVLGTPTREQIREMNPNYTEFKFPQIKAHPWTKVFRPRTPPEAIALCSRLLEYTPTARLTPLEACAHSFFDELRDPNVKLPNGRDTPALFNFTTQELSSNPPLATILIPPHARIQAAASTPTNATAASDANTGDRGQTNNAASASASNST

## CC(=O)O[C@H]1C[C@@H](O)C[C@H](O)C[C@@H](O)[C@@H]2O[C@H]2[C@@H](C)[C@@H]([C@@H](C)[C@@H](O)[C@H](C)[C@@H](O)[C@@H](C)[C@@H](C)O[C@H]2CC[C@H](O[C@@H]3CC[C@@H](OC(=O)[C@H](C)[C@@H](O)/C(C)=C/c4ccc5c(c4)C(=O)C=CC5=O)[C@H](C)O3)[C@H](C)O2)OC(=O)/C=C/[C@H](C)[C@@H](O)C[C@H](O)/C=C/CC[C@@H](C)[C@@H](O)[C@H](O)[C@@]2(O)O[C@@H](C1)C[C@@H](O)[C@@H]2O [LANGKOLIDE]
[1]
  Activity: inactive
[2]
  Activity: inactive
[3]
  Activity: inactive
[4]
  Activity: inactive
[5]
  IC50: 1 µM
[6]
  IC50: 1.23 µM
[7]
  IC50: 0.49 µM
[8]
  IC50: 2.41 µM
[9]
  IC50: 1.38 µM
[10]
  IC50: 0.48 µM
[11]
  IC50: 2.17 µM

— ChEMBL document CHEMBL2062475, “Langkolide, a 32-membered macrolactone antibiotic produced by Streptomyces sp. Acta 3062” (J Nat Prod, 2012)
